In patent publication US12480155B2, “Nicking enzymes” (LumiraDx UK Ltd., priority 2019, dated 2025):
Where two headings read alike, the source gives them in different places.

Columns and labels:
[1] = system: STAR reaction (Nt.BstNBI nicking endonuclease, Bst X DNA polymerase; Chlamydia trachomatis cryptic plasmid target)
Description: The STAR mixture contained two primers, polymerase, and nicking enzyme (referenced above). Reactions were performed in a final volume of 25 μl, including 1.0 μM of the forward primer, 0.5 μM of the reverse primer, 0.25 μM molecular beacon, 10 μl STAR Master Mix and 5 μl DNA sample. STAR master mix contained the following reagents; 12 mM MgSO4, 90 mM Tris-HCl (pH 8.5), 300 μM each dNTPs, 20 mM (NH4)2SO4, 15 mM Na2SO4, 2 mM. DTT, 0.01% Triton X-100, 15 U nicking endonuclease, 60 U polymerase. […] The temperature of the reactions was controlled, with a relatively high initiation temperature followed by a gradual drop over time, for optimal STAR activity. The initiation phase, primarily involving polymerase activity, was at the elevated temperature of 60° C. for 15 seconds. […] Amplification and STAR product detection were performed with the Agilent Mx3005P qPCR apparatus (Agilent).

[2] = system: Nb.BbvCI nicking endonuclease; assay: Nicking Enzyme Activity Assay (NAA) with Nb.BbvCI under isothermal condition; format: biochemical; conditions: 40 ml RbCl (so in the source), 1x CutSmart Buffer, isothermal 50 °C; four replicates vs control
Description: The assay comprises use of the following oligonucleotide probe (DLPFQ) (SEQ ID NO: 10 5′/56-FAM/[…].[…]/3BHQ_1/-3′). The oligonucleotide forms a molecular beacon-like probe in solution. […] Upstream of the nicking enzyme binding site is a 5′ fluorophore.
The reactions are run using an isothermal temperature profile, 50° C. […] Each reaction assessed kinetics, enzyme performance, and signal fluorescence.

[3] = system: Nb.BsmI nicking endonuclease; conditions: 20 mM Rb2SO4 vs control; STAR temperature profile; average of six replicates
Description: The modified NAA was run with and without rubidium using the following conditions.
The Nb.BsmI recognition sequence is GAATG_CN. (The underscore indicates the nick site). The oligonucleotide contains self-complementary sequences and forms a molecular beacon-like probe in solution. The probe has a nicking site for nicking endonuclease activity and a 3′ quencher. Upstream of the nicking binding site is a 5′ fluorophore. When in solution a complex is formed that completes a nicking binding site allowing for the nicking endonuclease to nick. Nb.BsmI is a bottom cutter and therefore will cut on the opposite strand of the nicking binding site. The oligonucleotide quencher 3′ of the nick site, following a nick by a nicking endonuclease, now has a low melting temperature. Because the reaction is performed above this melting temperature, the shortened fragment containing the quencher is released from the complex, generating fluorescence.
The basic NAA mixture contained the probe oligo (DLPFQ) with a 5′-FAM modification and a 3′-BHQ1 modification which folds on itself, and a nicking endonuclease (referenced above). […] The reactions were performed in a final volume of 25 μl, including different concentrations of DLPFQ depending on the nicking enzyme used, and 1×NAA Master Mix. […] Each reaction assessed kinetics, enzyme performance, and signal fluorescence.

Bst X DNA polymerase = conditions: 15 mM Rb2SO4 vs no added rubidium; STAR temperature profile; six replicates
Description: The NEF has a 5′ fluorophore, POQ has a 3′ quenching moiety that absorbs the photons released by the 5′ template oligo fluorophore. The PO serves as the initiation site for a strand displacement polymerase to extend and displace the quenching oligo allowing for fluorescence to be generated due to the quenching oligo no longer being in proximity to the template oligo.
The basic PAA mixture contains a template oligo (NEF) with a 5′-FAM modification, a priming oligo (PO) which anneals to the template's 3-end, a quenching oligo (POQ) with a 3′-BHQ1 modification which anneals to the template's 5′-end, and a polymerase (referenced above). The reactions were performed in a final volume of 25 μl, including 0.2 μM NEF, 0.3 μM PO, 0.7 μM POQ, and 1×PAA Master Mix. At a 1× concentration, the PAA master mix contained the following reagents; 12.5 mM MgSO4, 90 mM Tris-HCl (pH 8.5), 300 μM each dNTPs, 15 mM NH4CH3CO2, 15 mM Na2SO4, 5 mM DTT, 0.2 mg/ml BSA, 0.02% Triton X-100, 15 mM Rb2SO4, 10 mM L-Threonine, and 0.03 U/μl polymerase. […] The PAA was performed with the Agilent Mx3005P qPCR apparatus (Agilent). […] Each reaction assessed amplification kinetics, enzyme performance, and signal fluorescence.

[4] = system: Nt.BstNBI nicking endonuclease; conditions: 15 mM Rb2SO4 vs no rubidium; STAR temperature profile; six replicates
Description: The template oligo has a nicking site for nicking endonuclease activity and downstream a 3′ quencher. The priming oligo has the complementary nicking site sequence and a 5′ fluorophore. When in solution the two form a complex that completes a nicking binding site allowing for the nicking endonuclease to cut. The oligonucleotide quencher 5′ of the nick site, following a nick by a nicking endonuclease, now has a low melting temperature. Because the reaction is performed above this melting temperature, the shortened fragment containing the quencher is released from the complex generating fluorescence.
The basic NAA mixture contained the template oligo (NEQ) with a 3′ modification, and the priming oligo (POF) with a 5′-FAM modification which anneals to the template, and a nicking endonuclease (referenced above). The reactions were performed in a final volume of 25 μl, including 1.3 μM NEQ, 1.6 μM POE, and 1×NAA Master Mix. At a 1× concentration, the NAA master mix contained the following reagents; 12.5 mM MgSO4, 90 mM Tris-HCl (pH 8.5), 15 mM NH4CH3CO2, 15 mM Na2SO4, 5 mM DTT, 0.2 mg/ml BSA, 0.02% Triton X-100, 15 mM Rb2SO4, 10 mM L-Threonine, and 0.008 U/μl nicking endonuclease. […] The NAA was performed with the Agilent Mx3005P qPCR apparatus (Agilent). […] Each reaction assessed amplification kinetics, enzyme performance, and signal fluorescence.

[5] = system: isothermal amplification reaction (nicking endonuclease, polymerase; primers of Example 1)
Description: The basic mixture contains two primers, polymerase, and nicking enzyme (referenced above). […] The reactions were performed in a final volume of 25 μM, including 1.0 μM of the forward primer, 0.5 μM of the reverse primer, 0.25 μM molecular beacon, 10 μM Master Mix and 5 μl DNA sample. The master mix contained the following reagents; 12.5 mM MgSO4, 90 mM Tris-HCl (pH 8.5), 300 μM each dNTPs, 40 mM NH4OAc, 15 mM Na2SO4, 2 mM DTT, 0.01% Triton X-100, 15U nicking endonuclease, 60 U polymerase. […] Amplification and product detection were performed with the Agilent Mx3005P qPCR apparatus (Agilent).

With `CC(=O)[O-].[K+]` [potassium acetate] the “effect on STAR (ion replacement)” value ([1]; salts replaced in buffer, various concentrations) was “neither of which improved STAR”.
In the case of `[Cl-].[Rb+]` [rubidium chloride], the “nicking enzyme activity (fluorescence)” value [2] is reported as “increases the activity of Nb.BbvCI nicking endonuclease”.
`O=S(=O)([O-])[O-].[Rb+].[Rb+]` [rubidium sulfate] was tested, and the “nicking enzyme activity (fluorescence)” value [3] was “increases the activity of this other nicking endonuclease”, the “polymerase activity (fluorescence)” value (Bst X DNA polymerase) was “does not change the activity of the polymerase in any significant manner” and the “grouping of replicate sample results in STAR” value ([1]; 50 mM rubidium sulfate vs control group) was “more tightly grouped than with the control group”. For the same molecule, the “effect on STAR amplification” value ([1]; 50 mM rubidium sulfate vs no rubidium control) was “detrimental to amplification, slowing the reaction”, the “effect on STAR reactions” value ([1]; 10 to 20 mM rubidium sulphate vs no rubidium control, 100 copies target) was “improved STAR reactions” and the “nicking enzyme activity (fluorescence)” value [4] was “significantly increased the activity of the nicking enzyme”. For the same molecule, the “performance of 10 copy isothermal reaction” value ([5]; 15 mM of rubidium sulfate (so in the source), compared with 100 copy reaction without rubidium sulfate) was “made the 10 copy reaction perform similar to the 100 copy reaction without rubidium sulfate”, the “effect on isothermal amplification reaction” value ([5]; 20 mM rubidium sulfate vs without, 100 and 10 copies template, average of 4 replicates) was “improves the isothermal reaction” and the “tightness of replicates in isothermal amplification” value ([5]; with vs without rubidium, data not shown) was “tighter than without rubidium”.
With `CC(=O)[O-].CC(=O)[O-].CC(=O)[O-].[Sc+3]` [scandium acetate] the “effect on STAR (ion replacement)” value ([1]; all concentrations) was “fully inhibited the reaction”.
For `CC(=O)[O-].CC(=O)[O-].[Sr+2]` [strontium acetate], the “effect on STAR (ion replacement)” value ([1]; 10 mM) was “possibly slightly slowed the reaction” and the “effect on STAR (ion replacement)” value ([1]; 20 and 50 mM) was “fully inhibited the reaction”.
